These results are taken from ChEMBL document CHEMBL1134868, “Phosphonate and phosphinate analogues of N-acylated gamma-glutamylglutamate. potent inhibitors of glutamate carboxypeptidase II” (Bioorg Med Chem Lett, 2002).

Assay [1] concerns the target Glutamate carboxypeptidase 2 (Rattus norvegicus, UniProt P70627). Description: Compound was evaluated for its ability to inhibit Glutamate carboxypeptidase-II using N-acetyl-L-aspartyl-[3H]L-glutamate as substrate.
For assay [2], the target named is T1, Folylpolyglutamate synthase, mitochondrial (Homo sapiens, UniProt Q05932).
T1 sequence (Q05932 whole entry): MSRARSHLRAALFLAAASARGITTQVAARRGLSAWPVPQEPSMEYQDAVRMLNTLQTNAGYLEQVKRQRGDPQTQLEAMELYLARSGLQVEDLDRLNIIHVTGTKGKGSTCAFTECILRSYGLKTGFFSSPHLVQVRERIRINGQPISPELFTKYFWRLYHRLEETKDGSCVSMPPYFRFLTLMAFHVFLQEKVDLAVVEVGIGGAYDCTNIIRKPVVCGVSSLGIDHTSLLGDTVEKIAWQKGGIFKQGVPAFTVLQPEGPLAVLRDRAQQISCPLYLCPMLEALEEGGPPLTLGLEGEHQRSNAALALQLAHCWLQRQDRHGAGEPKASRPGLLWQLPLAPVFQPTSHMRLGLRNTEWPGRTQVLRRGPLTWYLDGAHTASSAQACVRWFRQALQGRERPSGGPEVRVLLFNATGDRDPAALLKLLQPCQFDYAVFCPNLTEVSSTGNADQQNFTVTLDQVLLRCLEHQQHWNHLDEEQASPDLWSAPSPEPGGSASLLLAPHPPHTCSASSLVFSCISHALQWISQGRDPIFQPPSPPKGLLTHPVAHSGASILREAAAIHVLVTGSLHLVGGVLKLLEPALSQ
Briefly: Compound was evaluated for its ability to inhibit Folyl-poly-gamma-glutamyl synthetase.

Assay [3] in a line: Compound was evaluated for its ability to inhibit Gamma glutamylhydroxylase.

Chain of Glutamate carboxypeptidase 2 (P70627 whole entry): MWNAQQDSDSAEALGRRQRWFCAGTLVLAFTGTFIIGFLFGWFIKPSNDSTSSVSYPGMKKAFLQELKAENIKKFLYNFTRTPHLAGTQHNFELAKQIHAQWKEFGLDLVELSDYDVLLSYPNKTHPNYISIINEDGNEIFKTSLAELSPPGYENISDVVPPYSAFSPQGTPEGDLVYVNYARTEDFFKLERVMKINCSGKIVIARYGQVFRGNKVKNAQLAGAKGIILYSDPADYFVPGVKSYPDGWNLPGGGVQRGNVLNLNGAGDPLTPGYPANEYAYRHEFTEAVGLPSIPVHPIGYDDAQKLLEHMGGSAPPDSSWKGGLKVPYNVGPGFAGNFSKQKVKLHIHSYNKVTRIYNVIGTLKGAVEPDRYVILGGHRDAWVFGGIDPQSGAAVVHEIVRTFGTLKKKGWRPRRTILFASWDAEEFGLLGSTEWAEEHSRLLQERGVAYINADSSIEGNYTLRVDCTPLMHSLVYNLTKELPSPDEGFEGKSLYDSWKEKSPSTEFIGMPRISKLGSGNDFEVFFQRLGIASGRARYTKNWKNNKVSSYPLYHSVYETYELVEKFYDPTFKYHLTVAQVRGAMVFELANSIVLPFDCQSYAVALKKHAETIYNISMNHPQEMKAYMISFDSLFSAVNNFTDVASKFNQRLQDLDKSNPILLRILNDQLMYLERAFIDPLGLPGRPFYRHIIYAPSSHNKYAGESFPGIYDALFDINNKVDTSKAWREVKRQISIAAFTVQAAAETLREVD

For orientation: IC50 means the concentration that gives 50% inhibition. Low readings indicate higher potency, high ones lower potency. Regarding `CNc1ccc(C(=O)N[C@@H](CCP(=O)(O)O[C@@H](CCC(=O)O)C(=O)O)C(=O)O)cc1`, the figures for the IC50 in assay [1] and in assay [2] were 0.004 µM and 5.7 µM, respectively.

With `CN(Cc1cnc2nc(N)nc(N)c2n1)c1ccc(C(=O)NC(CCP(=O)(O)OC(CCC(=O)O)C(=O)O)C(=O)O)cc1` (stereo not given), the IC50 in assay [1] was 0.005 µM; in assay [2], 0.02 µM.

For `Nc1ccc(C(=O)N[C@@H](CCP(=O)(O)O[C@@H](CCC(=O)O)C(=O)O)C(=O)O)cc1`, the IC50 in assay [1] was 0.003 µM; in assay [3], > 200 µM; in assay [2] it was 8.6 µM.

Take `CN(Cc1cnc2nc(N)nc(N)c2n1)c1ccc(C(=O)N[C@@H](CCP(=O)(O)O[C@@H](CCC(=O)O)C(=O)O)C(=O)O)cc1`: the IC50 in assay [1] is 0.004 µM; in assay [3], > 200 µM; in assay [2], 0.12 µM.
